The source made the active and inactive calls. The rule behind the calls is not given here.

From ChEMBL document CHEMBL5046256, “The discovery of potent small molecule cyclic urea activators of STING” (Eur J Med Chem, 2022) come the findings set out here.

The first assay has as its system HEK-293T. Briefly: Agonist activity against human STING R232H variant transfected in HEK-293T cells co-expressing ISRE.ISG54 at 5 uM by luciferase reporter gene assay relative to control. It is filed as cell-based.
Settings: not given
(In a reporter assay the amount or activity of a reporter protein is the signal.)
In the case of `O=C(NCc1c(F)cc(F)cc1F)c1ccc2c(c1)N(Cc1cc(F)cc(F)c1)C(=O)N(C1CC1)C2`, the Activity came out at 13%. The same measure, in the same setting: as for `C[C@H]1c2ccc(C(=O)NCc3c(F)cc(F)cc3F)cc2N(Cc2c(Cl)c[nH]c(=O)c2F)C(=O)N1C`, the figure is 16%. `Cc1ccc(CNC(=O)c2ccc3c(c2)N(Cc2cc(F)cc(F)c2)C(=O)N(C)C3)o1` showed an Activity of 16%. The same measure, in the same setting: in the case of `CN1Cc2ccc(C(=O)NCc3cccc(-c4ncco4)c3)cc2N(Cc2c(F)cccc2Cl)C1=O` it was “inactive”; in that of `CN1Cc2ccc(C(=O)NCc3cccc(N4CCOCC4)c3)cc2N(Cc2c(F)cccc2Cl)C1=O`, “inactive”; in that of `O=C(NCc1c(F)cc(F)cc1F)c1ccc2c(c1)N(Cc1c(F)cccc1Cl)C(=O)N(O)C2`, 8%. As to `CN1Cc2ccc(C(=O)NCc3ccc4c(c3)NCCO4)cc2N(Cc2c(F)cccc2Cl)C1=O`, the outcome was inactive. Still for that read-out and setting: as for `CN1Cc2ccc(CNCc3c(F)cc(F)cc3F)cc2N(Cc2c(F)cccc2Cl)C1=O`, the figure is 3%; as for `CN1Cc2ccc(C(=O)NCc3ccc4cnn(C)c4c3)cc2N(Cc2c(F)cccc2Cl)C1=O`, “inactive”; as for `CN1Cc2ccc(C(=O)NCc3cccc(-n4cncn4)c3)cc2N(Cc2c(F)cccc2Cl)C1=O`, “inactive”. Same read-out and setting: in the case of `CN1Cc2ccc(C(=O)NCc3cccc4c3OCO4)cc2N(Cc2c(F)cccc2Cl)C1=O` it was 4%. On the same count and under the same terms, as for `Cn1cnc(N2Cc3ccc(C(=O)NCc4c(F)cc(F)cc4F)cc3N(Cc3c(F)cccc3Cl)C2=O)c1`, the entry is “inactive”; as for `CN1Cc2ncc(C(=O)NCc3c(F)cc(F)cc3F)cc2N(Cc2cc(F)cc(F)c2)C1=O`, 19%. Turning to `CN1Cc2ccc(C(=O)NCc3cnc(-c4ccccc4)s3)cc2N(Cc2c(F)cccc2Cl)C1=O`, the result was inactive. For `CN1Cc2ccc(C(=O)NCc3ccc(C(F)(F)F)nc3)cc2N(Cc2c(F)cccc2Cl)C1=O`, the outcome was inactive. The same measure, in the same setting: in the case of `CN1Cc2ccc(C(=O)NCc3c(F)cc(F)cc3F)cc2N(Cc2cn3ccccc3n2)C1=O` it was 16%.

`CN1Cc2ccc(C(=O)NCc3cccc(-n4cccn4)c3)cc2N(Cc2c(F)cccc2Cl)C1=O`: the outcome was inactive. For the compound `CN1Cc2ccc(C(=O)NCc3cccc(N4CCCC4=O)c3)cc2N(Cc2c(F)cccc2Cl)C1=O`, the outcome was inactive. The same measure, in the same setting: as for `CN1Cc2ccc(C(=O)NCc3c(F)cc(F)cc3F)cc2N(Cc2cn(C)cn2)C1=O`, the figure is 7%. Still for that read-out and setting: in the case of `CN1Cc2ccc(C(=O)NCc3ccc4c(c3)CC(=O)N4)cc2N(Cc2c(F)cccc2Cl)C1=O` it was 2%; in that of `CN1Cc2ccc(C(=O)NCc3c(F)cc(F)cc3F)cc2N(Cc2ccnn2C)C1=O`, 7%; in that of `CC1c2ccc(C(=O)NCc3c(F)cc(F)cc3F)cc2N(Cc2ccc(F)cc2Cl)C(=O)N1C` (stereo unspecified), 25%. Still for that read-out and setting: in the case of `Cc1nc(CN2C(=O)N(C)Cc3ccc(C(=O)NCc4c(F)cc(F)cc4F)cc32)co1` it was 13%; in that of `CN1Cc2ccc(C(=O)NCc3cccc(C(=O)N4CCCC4)c3)cc2N(Cc2c(F)cccc2Cl)C1=O`, “inactive”; in that of `Cc1cc(CN2C(=O)N(C)Cc3ccc(C(=O)NCc4c(F)cc(F)cc4F)cc32)nn1C`, 14%.

The same assay, now with this note: filed as agonist.
Take `CN1Cc2ccc(C(=O)NCc3c(F)cc(F)cc3F)cc2N(Cc2ccccc2Cl)C1=O`: the Activity is 76%. Same read-out and setting: as for `CN1Cc2ccc(C(=O)NCc3c(F)cc(F)cc3F)cc2N(Cc2cccc(C(N)=O)c2)C1=O`, the figure is 57%; as for `Cc1cc(CN2C(=O)N(C)Cc3ccc(C(=O)NCc4c(F)cc(F)cc4F)cc32)no1`, 68%; as for `CN1Cc2ccc(C(=O)NCc3ccc4ccoc4c3)cc2N(Cc2c(F)cccc2Cl)C1=O`, 84%.

As for `CN1Cc2ccc(C(=O)NCc3ccc4occc4c3)cc2N(Cc2c(F)cccc2Cl)C1=O`, the Activity was 70%. On the same count and under the same terms, in the case of `Cc1cc(CN2C(=O)N(C)C(C)c3ccc(C(=O)NCc4c(F)cc(F)cc4F)cc32)ccn1` (racemic) [listing 1 of 2 here] it was 61%; in that of `CN1Cc2ncc(C(=O)NCc3c(F)cc(F)cc3F)cc2N(Cc2c(F)cccc2Cl)C1=O`, 76%.

Take `CON1Cc2ccc(C(=O)NCc3c(F)cc(F)cc3F)cc2N(Cc2c(F)cccc2Cl)C1=O`: the Activity is 82%.

Tested on in another assay: not listed separately
Put plainly: Agonist activity against human STING R232H variant transfected in HEK-293T cells co-expressing ISRE.ISG54 by luciferase reporter gene assay. It is filed as cell-based. The conditions noted are these: Homo sapiens, HEK-293T.
The term EC50 denotes the concentration needed to bring the measured effect to its halfway point. Low readings indicate higher potency in that assay, high ones lower potency in that assay. `CN1Cc2ccc(C(=O)NCc3c(F)cc(F)cc3F)cc2N(Cc2c(F)cccc2Cl)C1=O` registered an EC50 of 133 nM. Consider `C[C@@H]1c2ccc(C(=O)NCc3c(F)cc(F)cc3F)cc2N(Cc2c(F)cccc2Cl)C(=O)N1C`, for which the concentration for a half-maximal effect (EC50) stood at 2600 nM. Still for that read-out and setting: as for `C[C@H]1c2ccc(C(=O)NCc3c(F)cc(F)cc3F)cc2N(Cc2ncccc2F)C(=O)N1C`, the figure is 1040 nM; as for `Cc1cccc(CN2C(=O)N(C)C(C)c3ccc(C(=O)NCc4c(F)cc(F)cc4F)cc32)c1F` (stereo unspecified), 91 nM. On the same count and under the same terms, as for `CC1c2ccc(C(=O)NCc3c(F)cc(F)cc3F)cc2N(Cc2c(F)cccc2Cl)C(=O)N1C` (stereo unspecified), the figure is 29 nM; as for `CN1Cc2ccc(C(=O)NCc3c(F)cc(F)cc3F)cc2N(Cc2ccccc2)C1=O`, 980 nM. Regarding `CN1Cc2ccc(C(=O)NCc3c(F)cc(F)cc3F)cc2N(Cc2ccc(F)cc2)C1=O`, the half-maximal effective concentration (EC50) turned out to be 196 nM. Still for that read-out and setting: in the case of `CN1Cc2ccc(C(=O)NCc3c(F)cc(F)cc3F)cc2N(Cc2ccc(F)cc2F)C1=O` it was 204 nM; in that of `Cc1ncc(Cl)c(CN2C(=O)N(C)C(C)c3ccc(C(=O)NCc4c(F)cc(F)cc4F)cc32)c1F` (stereo unspecified), 39 nM. The same measure, in the same setting: as for `C[C@H]1c2ccc(C(=O)NCc3c(F)cc(F)cc3F)cc2N(Cc2c(F)cncc2F)C(=O)N1C`, the figure is 169 nM; as for `Cc1cccc(F)c1CN1C(=O)N(C)C(C)c2ccc(C(=O)NCc3c(F)cc(F)cc3F)cc21` (stereo unspecified), 41 nM. On to `CN1Cc2ccc(C(=O)NCc3cc4ccccc4o3)cc2N(Cc2cc(F)cc(F)c2)C1=O`, for which a half-maximal response (EC50) required 2260 nM. On the same count and under the same terms, in the case of `CN1Cc2ccc(C(=O)NCc3c(F)cc(F)cc3F)cc2N(Cc2ccccc2F)C1=O` it was 191 nM; in that of `Cc1nccc(CN2C(=O)N(C)[C@@H](C)c3ccc(C(=O)NCc4c(F)cc(F)cc4F)cc32)c1F`, 47 nM; in that of `Cc1nccc(CN2C(=O)N(C)C(C)c3ccc(C(=O)NCc4c(F)cc(F)cc4F)cc32)c1F` (stereo unspecified), 134 nM.

`COc1cccc(F)c1CN1C(=O)N(C)Cc2ccc(C(=O)NCc3c(F)cc(F)cc3F)cc21` returned an EC50 of 248 nM. Same read-out and setting: in the case of `Cc1cccc(CN2C(=O)N(C)Cc3ccc(C(=O)NCc4c(F)cc(F)cc4F)cc32)c1F` it was 369 nM. The same measure, in the same setting: as for `Cc1ccc(Cl)c(CN2C(=O)N(C)C(C)c3ccc(C(=O)NCc4c(F)cc(F)cc4F)cc32)c1F` (stereo unspecified), the figure is 60 nM. Turning to `CC1c2ccc(C(=O)NCc3c(F)cc(F)cc3F)cc2N(Cc2ccc(F)cc2)C(=O)N1C` (stereo unspecified), the EC50 stood at 200 nM. Compound `Cc1cccc(F)c1CN1C(=O)N(C)Cc2ccc(C(=O)NCc3c(F)cc(F)cc3F)cc21` yielded an EC50 of 317 nM. On the same count and under the same terms, in the case of `CC1c2ccc(C(=O)NCc3c(F)cc(F)cc3F)cc2N(Cc2c(F)cccc2C(F)(F)F)C(=O)N1C` (stereo unspecified) it was 181 nM. Still for that read-out and setting: in the case of `Cc1ccc(CN2C(=O)N(C)[C@@H](C)c3ccc(C(=O)NCc4c(F)cc(F)cc4F)cc32)c(F)c1` it was 135 nM; in that of `C[C@H]1c2ccc(C(=O)NCc3c(F)cc(F)cc3F)cc2N(Cc2c(F)ccc(F)c2Cl)C(=O)N1C`, 36 nM; in that of `Cc1ccc(Cl)c(CN2C(=O)N(C)[C@@H](C)c3ccc(C(=O)NCc4c(F)cc(F)cc4F)cc32)c1F`, 38 nM. On the same count and under the same terms, as for `CC1c2ccc(C(=O)NCc3c(F)cc(F)cc3F)cc2N(Cc2c(F)cc(Cl)cc2F)C(=O)N1C` (stereo unspecified), the figure is 157 nM; as for `Cc1ncc(Cl)c(CN2C(=O)N(C)[C@@H](C)c3ccc(C(=O)NCc4c(F)cc(F)cc4F)cc32)c1F`, 37 nM; as for `Cc1cccc(CN2C(=O)N(C)[C@@H](C)c3ccc(C(=O)NCc4c(F)cc(F)cc4F)cc32)c1F`, 47 nM. `CN1Cc2ccc(C(=O)NCc3c(F)cc(F)cc3F)cc2N(Cc2cc(F)cc(F)c2)C1=O` registered an EC50 of 274 nM. Take `CC1c2ccc(C(=O)NCc3c(F)cc(F)cc3F)cc2N(Cc2ccccc2)C(=O)N1C` (stereo unspecified): the response was half-maximal at 270 nM (EC50).

In turn, `CC1c2ccc(C(=O)NCc3c(F)cc(F)cc3F)cc2N(Cc2ccncc2F)C(=O)N1C` (stereo unspecified) yielded an EC50 of 388 nM. On the same count and under the same terms, as for `CN1Cc2ccc(C(=O)NCc3c(F)cc(F)cc3F)cc2N(Cc2ccncc2)C1=O`, the figure is 3340 nM; as for `C[C@H]1c2ccc(C(=O)NCc3c(F)cc(F)cc3F)cc2N(Cc2c(Cl)cn(C)c(=O)c2F)C(=O)N1C`, 1760 nM. The same measure, in the same setting: as for `Cc1ncc(CN2C(=O)N(C)Cc3ccc(C(=O)NCc4c(F)cc(F)cc4F)cc32)s1`, the figure is 1710 nM; as for `CC1c2ccc(C(=O)NCc3c(F)cc(F)cc3F)cc2N(Cc2ccccc2F)C(=O)N1C` (racemic), 153 nM; as for `O=C(NCc1c(F)cc(F)cc1F)c1ccc2c(c1)N(Cc1cc(F)cc(F)c1)C(=O)NC2`, 2340 nM.

Regarding `CN1Cc2ccc(C(=O)NCc3ccc(F)cc3F)cc2N(Cc2cc(F)cc(F)c2)C1=O`, the EC50 was 450 nM.

The assay is the same for the next values; noted with them: hek-293t.
The compound `Cc1cc(CN2C(=O)N(C)C(C)c3ccc(C(=O)NCc4c(F)cc(F)cc4F)cc32)ccn1` (stereo in doubt; 74) had an EC50 of 816 nM. On the same count and under the same terms, in the case of `CC1c2ccc(C(=O)NCc3c(F)cc(F)cc3F)cc2N(Cc2c(F)cccc2F)C(=O)N1C` (stereo in doubt; 72) it was 51 nM; in that of `CC1c2ccc(C(=O)NCc3c(F)cc(F)cc3F)cc2N(Cc2cc(F)cc(F)c2)C(=O)N1C` (stereo in doubt; 68), 117 nM; in that of `CC1c2ccc(C(=O)NCc3c(F)cc(F)cc3F)cc2N(Cc2cc(F)cc(F)c2)C(=O)N1C` (racemic), 470 nM. In turn, `Cc1cc(CN2C(=O)N(C)C(C)c3ccc(C(=O)NCc4c(F)cc(F)cc4F)cc32)ccn1` (racemic) [listing 2 of 2 here] returned an EC50 of 247 nM. The same measure, in the same setting: as for `CC1c2ccc(C(=O)NCc3c(F)cc(F)cc3F)cc2N(Cc2c(F)cccc2F)C(=O)N1C` (racemic), the figure is 21 nM; as for `CC1c2ccc(C(=O)NCc3c(F)cc(F)cc3F)cc2N(Cc2ccccc2F)C(=O)N1C` (stereo in doubt; 98), 122 nM.
